The test system of series [1] is SK-BR-3 cells. Put plainly: In vitro cell viability assay (CellTiter Blue) in SK-BR-3 cells. Conditions: Trastuzumab-MMAE conjugates. The series is classed as cell-based. As to the method: SK-BR-3 cells were seeded in 96 well black clear-bottom plates at 10K cells/well and cultured for 24 hours. Cells were treated for 96 hours with 2 fold serially diluted antibody-drug conjugates in triplicates. Cells viability was determined by […]™ Blue Cell Viability Assay (Promega, Madison, Wis.). Relative cell viability was determined as a percentage of untreated control. IC50 was calculated using a four parameter logistic model from XLfit.

Series [2] concerns BT474 cells. Briefly: BT474 cell-based assay. Conditions: Trastuzumab-MMAE conjugates, Table 4.
The nature of series [3]: In vivo stability in blood of NCI N87 xenograft mice (sandwich ELISA, ratio ADC/mAb). To be noted: blood samples up to 21 days.
Description: After ADC administration, blood samples of 20 μl were taken every 1-2 days up to 21 days by poking mouse tails and mixed with 120 μl of storage buffer (PBS with 10 mM EDTA and 0.1 M NH4Cl). Then total trastuzumab and ADC were analyzed by sandwich ELISA. Black NUNC® Maxisorp 96 plates were coated with Her2 protein at 100 ng/well. Samples were further diluted with PBS as needed to suit the linear detection range of 10 pg to 2 ng (for either Trastuzumab or ADC). After applying samples (fresh ADC dilutions were used as both total mAb and ADC standards) and washing, rabbit polyclonal anti-trastuzumab (for total mAb) or anti-MMAE (for total ADC) were applied as secondary antibodies while Goat anti-Rabbit IgG-HRP (Life-technologies) was used as the detection antibody. AMPLEX® Red (Cayman Chemical)/4-Iodophenol (Sigma)/H2O2 mixture was used as fluorescence substrate. Plates were read on SpectraMax GEMINI′ with 555 nm Ex and 585 nm Em.
Series [4] has as its target IgG1 (Homo sapiens, UniProt P01857, D239E/L241M). Briefly: mTgase-catalysed conjugation of IgG1 with MDC (HPLC). The class given is biochemical. Conditions: high enzyme concentration. As to the method: MDC was chosen for this experiment because it has a primary amine and its fluorescence can be easily monitored. […] To purified IgG1 (1-10 mg/ml) in Tris-buffer (pH 6.5-8.5), add MDC (Sigma-Aldrich) in DMSO to final concentrations of 1-5 mM (final DMSO 2-10%). Add purified wildtype TG_SL or its mutant to a final concentration of 0.05-1.0 mg/ml. Incubate the reaction mixtures at 37° C. Reaction was followed by HPLC using phenyl hydrophobic interaction column (PHIC, Tosoh Bioscience LLC). At the beginning of the reaction, the product was dominated by DAR1, where only one heavy chain of IgG1 was coupled with MDC. As the reaction progressed, DAR 2, where both heavy chains of IgG1 are coupled with MDC, became the major product. Toward the end of reaction (8 hours at 0.2 mg/ml of mTgase at pH 7), conjugation yield reached 80% for DAR2 with 20% of DAR 1 left, or 90% for heavy chain (HC) when the sample was reduced by 10 mM TCEP and analyzed on C4-1000A column (Vydac) (see FIG. 6). The selective conjugation of MDC to HC was visualized on SDS PAGE (FIG. 7). Other mTgases, such as TG_SM from S. mobaraensis (purified from Ajinomoto's Activa TI), was also tested.

Chain of IgG1 (P01857 with tags, fused parts or gaps isoform P01857-1 D239E/L241M, other chains not shown): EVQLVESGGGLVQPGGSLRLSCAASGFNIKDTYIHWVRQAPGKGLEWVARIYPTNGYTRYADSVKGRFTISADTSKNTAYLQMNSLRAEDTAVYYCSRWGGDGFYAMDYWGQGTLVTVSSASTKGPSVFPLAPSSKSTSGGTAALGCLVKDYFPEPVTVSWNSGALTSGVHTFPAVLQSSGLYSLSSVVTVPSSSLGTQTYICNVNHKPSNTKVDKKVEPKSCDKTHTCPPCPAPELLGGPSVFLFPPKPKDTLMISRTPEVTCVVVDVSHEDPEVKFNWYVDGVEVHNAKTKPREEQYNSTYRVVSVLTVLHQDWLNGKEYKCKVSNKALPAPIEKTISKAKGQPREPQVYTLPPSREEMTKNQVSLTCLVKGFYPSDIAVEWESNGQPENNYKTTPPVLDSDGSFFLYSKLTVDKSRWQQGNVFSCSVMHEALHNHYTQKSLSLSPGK

Take PEG4: the IC50 in series [1] worked out at 0.061 nM; in series [2] it was 0.273 nM.
Turning to PEG6, the half-inhibitory concentration (IC50) is 0.05 nM in series [1] and 0.234 nM in series [2].
With PEG8, the IC50 in series [1] is 0.042 nM; in series [2], 0.23 nM.
Consider PEG12, for which the values for the IC50 in series [1] and in series [2] were 0.038 nM and 0.267 nM, respectively. In series [3], the “stability in blood (ratio of ADC/mAb vs time)” value is given as “completely stable in blood”.

B1: TG_SM: mTgase from S. mobaraensis, purified from Ajinomoto's Activa TI (SEQ ID NO:18) (protein)
chain: DSDDRVTPPAEPLDRMPDPYRPSYGRAETVVNNYIRKWQQVYSHRDGRKQQMTEEQREWLSYGCVGVTWVNSGQYPTNRLAFASFDEDRFKNELKNGRPRSGETRAEFEGRVAKESFDEEKGFQRAREVASVMNRALENAHDESAYLDNLKKELANGNDALRNEDARSPFYSALRNTPSFKERNGGNHDPSRMKAVIYSKHFWSGQDRSSSADKRKYGDPDAFRPAPGTGLVDMSRDRNIPRSPTSPGEGFVNFDYGWFGAQTEADADKTVWTHGNHYHAPNGSLGAMHVYESKFRNWSEGYSDFDRGAYVITFIPKSWNTAPDKVKQGWP
As for B1, the “activity comparing to TG_SL” value in series [4] is “about 30%”.
